Article PMC4649711, “In1-ghrelin splicing variant is overexpressed in pituitary adenomas and increases their aggressive features” (Scientific Reports, 2015)
pEC50: −log10 of the molar value. “Also recorded” adds a separate entry of the source. Blank lines part the entries; values can stand above or below the compound they belong to. Residues, ends and D or L forms follow the SMILES beside them. *: point of attachment. Octanoyl = CCCCCCCC(=O)*

What was measured:
AtT-20 cell line [1] = assay: ACTH secretion from AtT-20 cell line; assay type: cell-based, mouse; settings: 4 h, 3–5 independent experiments
Procedure: (§1) The mouse corticotroph pituitary derived cell line AtT-20/D16v-F2 (ATCC® CRL-1795) was cultured and maintained in Dulbecco's Modified Eagle's Medium (DMEM) complemented with 10% FBS, 100 U/ml penicillin/streptomycin, 0.024 M of 2-(4(2-hydroxyethyl)-1-piperazine)-ethane sulfonic acid (HEPES), and maintained at 37°C and 5% CO2, under sterile conditions. CHO-K1 cell line(ATCC® CCL-61) expressing recombinant human GHSR1a (GenBank accession number U60179) or GHSR1b (GenBank accession number U60181) were cultured and maintained in Ham's F12 media (Corning #10-080-CV) supplemented with 10% FBS, 2 mM L-Glutamine and 0.4 mg/mL Geneticin.
To examine the effects of ghrelin system components (4- and/or 24 h-incubation) on pituitary hormone release from primary pituitary adenoma and/or AtT-20 cell line, 100,000–200,000 cell/well were used. As previously reported, hormone concentrations were measured in the culture media derived from human samples according to the pituitary adenoma type using commercial ELISAs [growth hormone, GH; adrenocorticotropin, ACTH; and prolactin, PRL (reference numbers: EIA-3552, EIA-3647 and EIA-1291, respectively; DRG, Mountainside, NJ, USA)] following the manufacturer's instructions. All the information regarding specificity, detectability, and reproducibility for each of the assays can be accessed at the web site of the company.

AtT-20 cell line [2] = assay: cell viability of AtT-20 cell line; assay type: cell-based, mouse; settings: alamar-blue, 3–5 independent experiments, IGF-1 and Paclitaxel as controls
Procedure: as §1
As previously reported, cell viability was estimated using alamar-blue reagent (10,000 cells/well-plate; Biosource International, Camarillo, CA, USA)[30][50][52]. Briefly, cells were serum-starved for 12–16 h before the measurements and treated with serum-free medium containing 10% alamar-blue for 3 h. Reduction of alamar-blue reagent was quantified exciting at 560 nm and reading at 590 nm using the FlexStation III system (Molecular Devices, Sunnyvale, CA, USA). Subsequently, media was replaced by serum-containing alamar-blue free medium and incubated for additional 24–72 h, measuring the alamar-blue reduction every 24 h. […]

GH-omas = assay: cell viability of GH-omas after In1-ghrelin silencing; assay type: cell-based, human; settings: siRNA 100 nM vs scramble, 24 and 48 h, alamar-blue, n = 2
Excerpt: (§2) To perform overexpression experiments, ghrelin sequence was purchased, cloned in pCMV-Sport6-vector (Harvard Cancer Center, Boston, MA, USA) and was subcloned into the expression vector pCDNA3.1+ (Life Technologies, Grand Island, NY, USA). In1-ghrelin sequence was PCR-amplified (In1-Hind-Up: 5′-[…]-3′ and In1-Bam-Low: 5′-[…]-3′) and cloned into pCDNA3.1+. Empty pCDNA3.1+ (mock) was used in all the experiments as negative control. For silencing experiments, a battery of custom-designed siRNAs specifically targeted against the unique In1-ghrelin mRNA sequence was chemically synthesized by Life Technologies and their efficiency, specificity and appropriate concentration tested in human cell lines expressing In1-ghrelin (MDA-MB-231 breast cancer cell line and LnCAP prostate cancer cell line) (data not shown). […]
(§3) As previously reported, cell viability was estimated using alamar-blue reagent (10,000 cells/well-plate; Biosource International, Camarillo, CA, USA)[30][50][52]. […] Reduction of alamar-blue reagent was quantified exciting at 560 nm and reading at 590 nm using the FlexStation III system (Molecular Devices, Sunnyvale, CA, USA). […]

NFPAs = assay: cell viability of NFPAs after In1-ghrelin silencing; assay type: cell-based, human; settings: siRNA 100 nM vs scramble, 24 and 48 h, alamar-blue, n = 2
Excerpt: as §2, §3

In1-ghrelin mRNA = assay: silencing of In1-ghrelin mRNA expression; assay type: cell-based, human; settings: qPCR; for silencing of In1-ghrelin expression: human cell lines MDA-MB-231 and LnCAP (data not shown) or representative pituitary tumor validation (Figure 6G)
Excerpt: To perform overexpression experiments, ghrelin sequence was purchased, cloned in pCMV-Sport6-vector (Harvard Cancer Center, Boston, MA, USA) and was subcloned into the expression vector pCDNA3.1+ (Life Technologies, Grand Island, NY, USA). In1-ghrelin sequence was PCR-amplified (In1-Hind-Up: 5′-[…]-3′ and In1-Bam-Low: 5′-[…]-3′) and cloned into pCDNA3.1+. Empty pCDNA3.1+ (mock) was used in all the experiments as negative control. For silencing experiments, a battery of custom-designed siRNAs specifically targeted against the unique In1-ghrelin mRNA sequence was chemically synthesized by Life Technologies and their efficiency, specificity and appropriate concentration tested in human cell lines expressing In1-ghrelin (MDA-MB-231 breast cancer cell line and LnCAP prostate cancer cell line) (data not shown). […] As a negative control, a commercial, validated negative control (scramble) was used in all the experiments, which according to the manufacturer's instructions, has no significant sequence similarity to murine or human gene sequences (Silencer Select Negative Control No. 1 siRNA, Life Technologies, […], NY, USA).
For transfection assays (overexpression or silencing), 200,000–500,000 cells were seeded on 6-well plates in serum containing medium during 24–36 h. Then, medium was replaced with antibiotic-antimycotic free medium. For overexpression experiments, 100 ng/50,000 cell of ghrelin or In1-ghrelin plasmid was diluted in 50 μL of Opti-MEM and, 0.5 μL of Lipofectamine 2000 (Life Technologies) were separately diluted in another 50 μL of Opti-MEM. Both solutions were incubated for 5 minutes at room temperature and then, were mixed and incubated for 30 minutes at room temperature. After this incubation period, the solution (total of 100 μL) was added to the cells/per well. For silencing experiments, 7.5 μL of Lipofectamine RNAiMAX (Life Technologies) was diluted in 100 μL of Opti-MEM and, 100 nM of In1-ghrelin siRNA was separately diluted in another 100 μL of Opti-MEM. […]

recombinant human GHSR1b = molecular target: T1, recombinant human GHSR1b (Homo sapiens, UniProt Q92847); assay: calcium signaling activation in GHSR1b-transfected CHO-K1 cells; assay type: cell-based; settings: Calcium 4 kit, FLIPR Tetra, 37°C dye loading 1 h, dose-response, GraphPad Prism, read-out: Half-maximal Calcium signaling activation (EC50)
T1 construct: expressed in transfected cells; host or cells: CHO-K1 (ATCC CCL-61), stably transfected
T1 sequence (Q92847 1-289 isoform Q92847-2): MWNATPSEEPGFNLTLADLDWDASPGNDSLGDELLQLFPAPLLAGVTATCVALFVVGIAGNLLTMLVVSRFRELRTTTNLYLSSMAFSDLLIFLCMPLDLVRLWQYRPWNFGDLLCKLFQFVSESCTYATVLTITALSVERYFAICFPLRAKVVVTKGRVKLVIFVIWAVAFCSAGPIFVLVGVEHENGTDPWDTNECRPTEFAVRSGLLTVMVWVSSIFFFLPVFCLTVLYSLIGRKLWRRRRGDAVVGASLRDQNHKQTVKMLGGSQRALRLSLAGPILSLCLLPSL
Procedure: Changes in [Ca^2+]i in CHO-K1 cell line expressing recombinant GHSR1a or GHSR1b receptor were measured using Calcium 4 Explorer Kit (Molecular Devices, Sunnyvale, CA, USA). Briefly, cells were incubated at 37°C, 5% CO2 overnight in growth media. After 24 hours, growth media was replaced with Calcium 4 indicating dye in HBSS buffer containing 20 mM HEPES and 0.1% BSA and incubated for 1 hour at 37°C. Fluorescent signals were then monitored using the FLIPR Tetra (Molecular Devices, Sunnyvale, CA, USA) during which cells were stimulated with compounds. Dose-response curves were analyzed using GraphPad Prism v5.04 (La Jolla, CA, USA).

Compound: GSSFLSPEHQKAQVSQSVSLSPHIYPDLCVCV [In2-ghrelin, 32-aa mouse In2-ghrelin derived peptide, murine counterpart of In1-ghrelin]
basal ACTH release (AtT-20 cell line [1]): significantly increased basal ACTH release | cell viability (AtT-20 cell line [2]): stimulated cell viability; also recorded: increased cell viability

Compound: 5′-GAGTCCTAAACAGACTGTT-3′ (siRNA; other strand not given here) [In1-ghrelin siRNA]
cell viability after In1-ghrelin silencing (GH-omas): reduced cell viability | cell viability after In1-ghrelin silencing (NFPAs): reduced cell viability | silencing of In1-ghrelin expression (In1-ghrelin mRNA): more robust silencing efficiency of In1-ghrelin, but not native ghrelin | silencing of In1-ghrelin expression (In1-ghrelin mRNA; listed as specific siRNAs): decrease of In1-ghrelin mRNA expression | ghrelin mRNA expression after In1-ghrelin silencing (In1-ghrelin mRNA; selectivity vs native ghrelin): no significant decrease of ghrelin mRNA expression

pEC50 (recombinant human GHSR1b): < 5.52
Compound: CCCCCCCC(=O)OC[C@H](NC(=O)[C@H](CO)NC(=O)CN)C(=O)N[C@@H](Cc1ccccc1)C(=O)N[C@@H](CC(C)C)C(=O)N[C@@H](CO)C(=O)N1CCC[C@H]1C(=O)N[C@@H](CCC(=O)O)C(=O)N[C@@H](Cc1c[nH]cn1)C(=O)N[C@@H](CCC(N)=O)C(=O)N[C@@H](CCCNC(=N)N)C(=O)N[C@H](C(=O)N[C@@H](CCC(N)=O)C(=O)N[C@H](C(=O)N[C@@H](CCCNC(=N)N)C(=O)N1CCC[C@H]1C(=O)N1CCC[C@H]1C(=O)N[C@@H](Cc1c[nH]cn1)C(=O)N[C@@H](CCCCN)C(=O)N[C@@H](C)C(=O)N1CCC[C@H]1C(=O)N[C@@H](Cc1c[nH]cn1)C(=O)N[C@H](C(=O)N[C@H](C(=O)N1CCC[C@H]1C(=O)N[C@@H](C)C(=O)N[C@@H](CC(C)C)C(=O)N1CCC[C@H]1C(=O)N[C@@H](CC(C)C)C(=O)N[C@@H](CO)C(=O)N[C@@H](CC(N)=O)C(=O)N[C@@H](CCC(N)=O)C(=O)N[C@@H](CC(C)C)C(=O)N[C@@H](CS)C(=O)N[C@@H](CC(=O)O)C(=O)N[C@@H](CC(C)C)C(=O)N[C@@H](CCC(=O)O)C(=O)N[C@@H](CCC(N)=O)C(=O)N[C@@H](CCC(N)=O)C(=O)N[C@@H](CCCNC(=N)N)C(=O)O)C(C)C)C(C)C)C(C)C)C(C)C [In1-40] (H-GSS(Octanoyl)FLSPEHQRVQVRPPHKAPHVVPALPLSNQLCDLEQQR-OH)

pEC50 (recombinant human GHSR1b): < 5.52
Compound: CCCCCCCC(=O)OC[C@H](NC(=O)[C@H](CO)NC(=O)CN)C(=O)N[C@@H](Cc1ccccc1)C(=O)N[C@@H](CC(C)C)C(=O)N[C@@H](CO)C(=O)N1CCC[C@H]1C(=O)N[C@@H](CCC(=O)O)C(=O)N[C@@H](Cc1c[nH]cn1)C(=O)N[C@@H](CCC(N)=O)C(=O)N[C@@H](CCCNC(=N)N)C(=O)N[C@H](C(=O)N[C@@H](CCC(N)=O)C(=O)N[C@H](C(=O)N[C@@H](CCCNC(=N)N)C(=O)N1CCC[C@H]1C(=O)N1CCC[C@H]1C(=O)N[C@@H](Cc1c[nH]cn1)C(=O)N[C@@H](CCCCN)C(=O)O)C(C)C)C(C)C [In1-19] (H-GSS(Octanoyl)FLSPEHQRVQVRPPHK-OH)
